Six molecules from ChEMBL document CHEMBL5465560, “Selectivity Literature for EUbOPEN Chemogenomic Library” (2024) can be followed below.

Structures are written as SMILES. Where only a bound is given, the exact number is not on record here.

The target in test [1] is T1, Receptor-interacting serine/threonine-protein kinase 4 (Homo sapiens) (UniProt P57078).
T1 sequence (whole entry): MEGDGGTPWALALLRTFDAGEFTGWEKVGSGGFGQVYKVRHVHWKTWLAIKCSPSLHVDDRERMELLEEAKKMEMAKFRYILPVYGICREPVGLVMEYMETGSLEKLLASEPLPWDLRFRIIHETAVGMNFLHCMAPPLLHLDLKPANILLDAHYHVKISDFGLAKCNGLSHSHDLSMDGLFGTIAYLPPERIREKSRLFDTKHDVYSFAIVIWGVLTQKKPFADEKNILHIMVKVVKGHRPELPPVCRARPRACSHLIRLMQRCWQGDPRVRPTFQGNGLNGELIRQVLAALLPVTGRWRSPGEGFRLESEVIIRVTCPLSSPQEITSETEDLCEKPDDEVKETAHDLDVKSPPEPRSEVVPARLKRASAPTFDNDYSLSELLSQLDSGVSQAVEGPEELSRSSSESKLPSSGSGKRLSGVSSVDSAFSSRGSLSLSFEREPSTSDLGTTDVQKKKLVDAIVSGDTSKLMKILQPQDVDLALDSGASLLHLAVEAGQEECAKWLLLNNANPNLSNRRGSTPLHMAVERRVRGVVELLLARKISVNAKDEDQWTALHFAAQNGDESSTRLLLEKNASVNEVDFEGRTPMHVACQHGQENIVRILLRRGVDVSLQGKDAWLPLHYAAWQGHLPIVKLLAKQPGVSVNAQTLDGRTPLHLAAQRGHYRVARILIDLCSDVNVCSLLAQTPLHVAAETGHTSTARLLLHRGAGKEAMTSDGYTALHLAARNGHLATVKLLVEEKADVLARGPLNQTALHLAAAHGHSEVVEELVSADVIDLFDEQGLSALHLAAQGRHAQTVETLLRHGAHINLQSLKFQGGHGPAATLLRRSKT
As to the kind of experiment: Selectivity interaction (KinomeScan (DiscoverX)) EUB0000695a RIPK4. To be noted: at 100 nM.

Test [2] deals with Mitogen-activated protein kinase 4 (Homo sapiens) (UniProt P31152). As to the kind of experiment: Selectivity interaction (KinomeScan (DiscoverX)) EUB0000695a MAPK4. Particulars: at 100 nM.
In test [3] the target is Cyclin-dependent kinase 15 (Homo sapiens) (UniProt Q96Q40). Put plainly: Selectivity interaction (KinomeScan (DiscoverX)) EUB0000045b CDK15.
Test [4] addresses T2, Serine/threonine-protein kinase 36 (Homo sapiens) (UniProt Q9NRP7).
T2 sequence (whole entry): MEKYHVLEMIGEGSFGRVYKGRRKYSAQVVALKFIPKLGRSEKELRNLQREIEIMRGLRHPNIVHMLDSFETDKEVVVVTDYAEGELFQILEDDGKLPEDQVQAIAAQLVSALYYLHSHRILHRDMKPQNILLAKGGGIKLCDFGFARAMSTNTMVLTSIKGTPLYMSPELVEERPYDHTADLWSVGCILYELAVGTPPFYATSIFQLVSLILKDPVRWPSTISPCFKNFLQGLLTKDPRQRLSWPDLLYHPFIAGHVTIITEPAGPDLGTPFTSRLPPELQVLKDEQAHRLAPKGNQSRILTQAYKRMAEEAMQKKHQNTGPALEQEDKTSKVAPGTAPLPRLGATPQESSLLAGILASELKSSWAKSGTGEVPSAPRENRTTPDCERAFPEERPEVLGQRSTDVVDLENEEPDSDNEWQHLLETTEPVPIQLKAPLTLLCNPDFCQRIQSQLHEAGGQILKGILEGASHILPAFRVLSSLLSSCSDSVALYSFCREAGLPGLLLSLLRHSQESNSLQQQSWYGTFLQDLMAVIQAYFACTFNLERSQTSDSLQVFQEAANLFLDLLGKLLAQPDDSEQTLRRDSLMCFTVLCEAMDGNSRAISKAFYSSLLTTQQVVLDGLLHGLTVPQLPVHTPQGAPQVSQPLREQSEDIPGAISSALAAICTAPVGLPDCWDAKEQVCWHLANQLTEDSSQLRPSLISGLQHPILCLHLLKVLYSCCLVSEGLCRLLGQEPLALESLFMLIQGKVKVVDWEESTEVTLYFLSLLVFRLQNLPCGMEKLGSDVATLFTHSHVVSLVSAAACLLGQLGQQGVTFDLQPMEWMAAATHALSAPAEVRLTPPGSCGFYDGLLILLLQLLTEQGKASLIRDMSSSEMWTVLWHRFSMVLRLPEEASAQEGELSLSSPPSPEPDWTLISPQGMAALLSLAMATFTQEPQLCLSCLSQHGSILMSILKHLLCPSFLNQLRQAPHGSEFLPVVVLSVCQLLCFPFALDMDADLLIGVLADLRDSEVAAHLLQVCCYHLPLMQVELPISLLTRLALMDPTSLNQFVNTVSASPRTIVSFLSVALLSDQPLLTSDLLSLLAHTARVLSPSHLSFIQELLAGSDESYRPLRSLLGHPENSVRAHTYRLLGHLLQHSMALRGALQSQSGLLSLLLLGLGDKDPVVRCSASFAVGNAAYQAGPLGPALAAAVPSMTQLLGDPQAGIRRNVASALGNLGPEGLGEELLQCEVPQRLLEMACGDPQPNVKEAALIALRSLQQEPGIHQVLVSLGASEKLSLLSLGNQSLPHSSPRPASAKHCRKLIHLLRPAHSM
As to the kind of experiment: Selectivity interaction (KinomeScan (DiscoverX)) EUB0000655a STK36. To be noted: at 10 µM.

The target in test [5] is Serine/threonine-protein kinase PLK3 (Homo sapiens, UniProt Q9H4B4). As to the kind of experiment: Selectivity interaction (KinomeScan (DiscoverX)) EUB0000618a PLK3. To be noted: at 10 µM.
In test [6] the target is T3, Serine/threonine-protein kinase RIO1 (Homo sapiens) (UniProt Q9BRS2).
T3 sequence (whole entry): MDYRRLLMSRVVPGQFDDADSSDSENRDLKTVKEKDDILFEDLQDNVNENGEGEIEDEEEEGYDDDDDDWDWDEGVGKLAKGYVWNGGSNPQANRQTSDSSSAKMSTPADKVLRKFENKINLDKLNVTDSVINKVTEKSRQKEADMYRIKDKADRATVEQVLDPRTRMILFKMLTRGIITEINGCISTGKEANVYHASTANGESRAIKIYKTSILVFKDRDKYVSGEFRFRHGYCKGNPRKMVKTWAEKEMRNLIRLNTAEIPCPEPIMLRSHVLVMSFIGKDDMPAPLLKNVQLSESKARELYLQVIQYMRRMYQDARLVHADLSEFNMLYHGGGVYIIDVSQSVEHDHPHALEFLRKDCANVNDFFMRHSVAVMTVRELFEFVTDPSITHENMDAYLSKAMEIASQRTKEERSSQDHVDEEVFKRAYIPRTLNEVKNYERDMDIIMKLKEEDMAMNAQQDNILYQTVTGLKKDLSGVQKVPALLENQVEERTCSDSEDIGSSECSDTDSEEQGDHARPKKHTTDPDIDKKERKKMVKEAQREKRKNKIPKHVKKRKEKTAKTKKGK
As to the kind of experiment: Selectivity interaction (KinomeScan (DiscoverX)) EUB0000092b RIOK1. Particulars: at 10 µM.

Test [7] has as its target Transcription initiation factor TFIID subunit 1 (Homo sapiens) (UniProt P21675). As to the kind of experiment: Selectivity interaction (Human bromodomain panel (DSF assay)) EUB0000233b TAF1. A general note: DSF heats the sample and reads unfolding from a dye or from intrinsic fluorescence.

Chain of Cyclin-dependent kinase 15 (Homo sapiens) (Q96Q40 whole entry): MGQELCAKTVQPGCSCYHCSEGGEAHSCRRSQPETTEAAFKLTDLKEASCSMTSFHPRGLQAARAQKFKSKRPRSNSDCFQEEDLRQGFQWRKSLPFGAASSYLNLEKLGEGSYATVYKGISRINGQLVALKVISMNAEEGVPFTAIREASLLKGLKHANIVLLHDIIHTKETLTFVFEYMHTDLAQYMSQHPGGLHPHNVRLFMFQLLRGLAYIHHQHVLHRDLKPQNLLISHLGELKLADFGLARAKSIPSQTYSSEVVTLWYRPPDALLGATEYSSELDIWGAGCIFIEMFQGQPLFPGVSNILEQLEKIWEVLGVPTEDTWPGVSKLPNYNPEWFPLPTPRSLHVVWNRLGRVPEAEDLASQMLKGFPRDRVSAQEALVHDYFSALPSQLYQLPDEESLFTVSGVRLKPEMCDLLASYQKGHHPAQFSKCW
Chain of Serine/threonine-protein kinase PLK3 (Q9H4B4 whole entry, looked up): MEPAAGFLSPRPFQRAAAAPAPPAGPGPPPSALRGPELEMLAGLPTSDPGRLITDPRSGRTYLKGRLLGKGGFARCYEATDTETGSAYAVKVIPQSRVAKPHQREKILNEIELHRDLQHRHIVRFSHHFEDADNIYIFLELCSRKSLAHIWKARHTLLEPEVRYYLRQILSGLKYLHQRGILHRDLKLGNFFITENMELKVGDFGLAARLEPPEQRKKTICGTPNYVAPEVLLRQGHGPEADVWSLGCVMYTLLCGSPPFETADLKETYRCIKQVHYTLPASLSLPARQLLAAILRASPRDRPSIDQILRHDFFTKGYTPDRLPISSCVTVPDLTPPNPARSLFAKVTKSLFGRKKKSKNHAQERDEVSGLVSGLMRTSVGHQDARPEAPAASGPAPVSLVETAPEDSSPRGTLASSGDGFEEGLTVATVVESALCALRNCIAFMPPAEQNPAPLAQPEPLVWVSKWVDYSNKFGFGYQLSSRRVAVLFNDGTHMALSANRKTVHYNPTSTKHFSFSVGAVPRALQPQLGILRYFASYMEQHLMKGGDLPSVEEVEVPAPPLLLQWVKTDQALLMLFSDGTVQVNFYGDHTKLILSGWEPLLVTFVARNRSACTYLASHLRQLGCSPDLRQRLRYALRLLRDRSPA
Chain of Transcription initiation factor TFIID subunit 1 (Homo sapiens) (P21675 whole entry): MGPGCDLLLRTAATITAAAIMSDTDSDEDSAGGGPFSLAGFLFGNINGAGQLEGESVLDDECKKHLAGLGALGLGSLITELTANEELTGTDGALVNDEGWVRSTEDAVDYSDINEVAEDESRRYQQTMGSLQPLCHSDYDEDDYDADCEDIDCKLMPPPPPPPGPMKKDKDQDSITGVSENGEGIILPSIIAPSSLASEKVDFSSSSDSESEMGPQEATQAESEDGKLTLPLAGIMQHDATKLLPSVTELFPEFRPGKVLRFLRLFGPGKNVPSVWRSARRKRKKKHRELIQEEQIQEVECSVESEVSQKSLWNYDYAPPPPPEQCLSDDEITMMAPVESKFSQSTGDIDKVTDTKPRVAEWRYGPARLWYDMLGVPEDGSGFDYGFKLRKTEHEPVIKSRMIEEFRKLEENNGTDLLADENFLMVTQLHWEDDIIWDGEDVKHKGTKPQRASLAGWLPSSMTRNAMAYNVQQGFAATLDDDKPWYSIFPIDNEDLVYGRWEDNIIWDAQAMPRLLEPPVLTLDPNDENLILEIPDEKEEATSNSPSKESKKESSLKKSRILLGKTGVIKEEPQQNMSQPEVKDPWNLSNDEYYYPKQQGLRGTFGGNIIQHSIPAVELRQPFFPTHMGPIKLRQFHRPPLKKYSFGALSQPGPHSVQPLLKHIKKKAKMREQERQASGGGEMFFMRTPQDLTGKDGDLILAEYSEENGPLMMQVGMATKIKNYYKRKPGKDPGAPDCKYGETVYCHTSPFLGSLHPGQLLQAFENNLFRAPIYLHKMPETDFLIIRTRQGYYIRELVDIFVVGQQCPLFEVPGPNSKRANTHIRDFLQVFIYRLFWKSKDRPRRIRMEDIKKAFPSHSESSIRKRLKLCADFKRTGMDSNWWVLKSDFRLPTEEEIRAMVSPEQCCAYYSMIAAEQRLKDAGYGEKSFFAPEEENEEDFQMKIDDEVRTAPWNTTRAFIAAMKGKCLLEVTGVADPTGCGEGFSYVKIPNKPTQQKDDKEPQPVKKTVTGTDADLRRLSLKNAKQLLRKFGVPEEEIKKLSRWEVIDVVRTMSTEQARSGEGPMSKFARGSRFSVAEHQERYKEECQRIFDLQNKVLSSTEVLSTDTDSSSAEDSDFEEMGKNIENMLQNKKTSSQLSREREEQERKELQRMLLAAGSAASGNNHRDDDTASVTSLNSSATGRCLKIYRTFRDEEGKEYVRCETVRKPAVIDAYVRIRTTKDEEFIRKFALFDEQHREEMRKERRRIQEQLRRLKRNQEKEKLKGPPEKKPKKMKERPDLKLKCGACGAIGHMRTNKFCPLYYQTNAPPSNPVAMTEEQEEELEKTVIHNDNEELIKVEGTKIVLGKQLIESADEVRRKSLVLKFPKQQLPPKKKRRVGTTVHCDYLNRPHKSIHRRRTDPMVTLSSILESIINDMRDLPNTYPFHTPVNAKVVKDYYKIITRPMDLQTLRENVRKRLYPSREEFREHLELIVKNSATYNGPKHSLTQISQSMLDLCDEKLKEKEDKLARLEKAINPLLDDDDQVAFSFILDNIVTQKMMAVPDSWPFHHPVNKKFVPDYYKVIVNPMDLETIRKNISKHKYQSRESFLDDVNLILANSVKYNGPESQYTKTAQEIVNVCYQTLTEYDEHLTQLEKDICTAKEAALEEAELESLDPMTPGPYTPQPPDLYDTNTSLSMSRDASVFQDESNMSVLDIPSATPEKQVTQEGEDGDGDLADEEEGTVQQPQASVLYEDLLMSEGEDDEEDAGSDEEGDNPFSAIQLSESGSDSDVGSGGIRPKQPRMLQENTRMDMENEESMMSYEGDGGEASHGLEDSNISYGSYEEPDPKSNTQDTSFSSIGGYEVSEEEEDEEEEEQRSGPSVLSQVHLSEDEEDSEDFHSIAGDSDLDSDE
Chain of Mitogen-activated protein kinase 4 (Homo sapiens) (P31152 whole entry): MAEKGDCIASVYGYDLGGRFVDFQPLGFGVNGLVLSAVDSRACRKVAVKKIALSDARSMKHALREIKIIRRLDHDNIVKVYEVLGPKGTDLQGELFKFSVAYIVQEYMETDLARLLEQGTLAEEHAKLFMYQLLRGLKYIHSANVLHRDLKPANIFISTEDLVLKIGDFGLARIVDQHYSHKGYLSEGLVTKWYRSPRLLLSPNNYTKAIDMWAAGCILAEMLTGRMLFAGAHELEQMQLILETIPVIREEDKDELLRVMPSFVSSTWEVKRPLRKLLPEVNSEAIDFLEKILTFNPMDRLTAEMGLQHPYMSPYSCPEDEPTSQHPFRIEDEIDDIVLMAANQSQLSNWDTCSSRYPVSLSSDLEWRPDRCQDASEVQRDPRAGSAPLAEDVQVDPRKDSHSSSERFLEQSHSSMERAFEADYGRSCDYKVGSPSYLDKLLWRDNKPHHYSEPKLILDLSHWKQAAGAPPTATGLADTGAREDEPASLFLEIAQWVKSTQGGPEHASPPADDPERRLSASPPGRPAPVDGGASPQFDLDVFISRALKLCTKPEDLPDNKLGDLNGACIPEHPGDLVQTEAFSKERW

For the molecule `Cc1cc(F)c(C(=O)Nc2cccc(-c3nncn3C(C)C)n2)cc1-n1cnc(C2CC2)c1`, the % of control in test [1] and in test [2] was 100% each time.

Regarding `C=CC(=O)Nc1cc(-n2c(=O)ccc3cnc4ccc(-c5ccc(NS(C)(=O)=O)cc5)cc4c32)ccc1C`, the % of control turned out to be 100% in test [3] (at 1 µM) and 72% in test [3] (at 10 µM). For the molecule `CN(C)CCOc1ccc(-c2nc(-c3ccncc3)c(-c3ccc4c(c3)CC/C4=N\O)[nH]2)cc1`, the % of control in test [4] was 35%. Turning to `O[C@H]1CC[C@H](Nc2ncc3nc(Nc4c(F)cc(F)cc4F)n([C@H]4CCOC4)c3n2)CC1`, the % of control in test [5] came to 100%.

`CCC(=O)N1CCN(c2ccc(-n3c(=O)ccc4cnc5ccc(-c6cnc7ccccc7c6)cc5c43)cc2C(F)(F)F)CC1` displayed a % of control in test [6] of 81%.

In test [7], `CN(C)CCCOc1ccc(-c2cc(NCCCn3cccn3)nc(S(C)(=O)=O)n2)cc1` gave a dTM of less than 2 K.
